Values after ≈ are worked out from the molar mass of the structure shown.
How the values were obtained:
electric eel AChE = electric eel AChE (Electrophorus electricus, UniProt O42275); assay: biochemical; type: biochemical; details: mean ± S.D.; for IC50: read-out: AChEI IC50 (converted)
Protocol: According to the Ellman et al. published spectrophotometric method of electric eel AChE [47], AChEI activity was measured. Acetylthiocholine iodide (ATCI) was used as the reaction’s substrate, and the antiacetylcholinesterase activity was measured using 5,5’-Dithiobis-(2-nitrobenzoic acid) (DTNB).

[1] = DPPH radical scavenging activity; details: antiradical scavenging; mean ± S.D.
Protocol: (§1) Three methods were used for the assessing antioxidant properties of the selected compounds, which are 2.2-diphenyl-1-picrylhydrazyl (DPPH), 2.2’-azino-bis (3-ethylbenzothiazoline-6-sulphonic acid) (ABTS) radicals scavenging, and β-carotene linoleic acid bleaching assay. […] The control compound was butylated hydroxytoluene (BHT), which is a potent antioxidant.
Briefly, various amounts of produced compounds were diluted with ultrapure water after being dissolved in dimethylsulfoxide (DMSO)/water (1/9; v/v) (1, 0.5, 0.250, 0.125, 0.0625, 0.03125 mg mL^−1). The samples were then combined with […] of a 4% (w/v) solution of the DPPH radical in ethanol. The combination was incubated for 30 min. at room temperature and in the dark. Spectrophotometric analysis was used to calculate the scavenging capacity by comparing the decrease in absorbance at 517 nm to a blank.
(§2) All the assays used for antioxidant determination (DPPH, ABTS, and β-carotene bleaching assay) were performed simultaneously three times in the same conditions. The results obtained in µM mL^−1 average of the three experiments.

[2] = ABTS radical scavenging assay; details: antiradical scavenging; mean ± S.D.
Protocol: as §1
ABTS radical scavenging activity was conducted by referring to the method of Re et al..
as §2

[3] = β-Carotene linoleic acid bleaching assay; details: β-carotene bleaching test; mean ± S.D.
Protocol: as §1
β-Carotene bleaching test was conducted following the method described by Pratt’s.
as §2

[4] = test system: colon carcinoma cells (HCT-116); assay: In vitro anticancer proliferation (cytotoxicity) assay; type: cell-based, human; details: for IC50: Homo sapiens, HCT-116, mean ± S.D.; for IC50 HCT-116: mean ± S.D.
Protocol: (§3) The selected compound was investigated for its cytotoxic properties against HCT-116 and HepG-2 (cancer cell lines of ATCC, Rockville, MD, USA). Vinblastine was applied as reference drug. The assay was conducted according to the methods described by Mossman and our recently published data.

[5] = test system: hepatocellular carcinoma cell lines (HepG-2); assay: as above; type: cell-based, human; details: hepatocellular carcinoma cells, mean ± S.D.; for IC50: Homo sapiens, HepG2
Protocol: as §3

[6] = In vitro cytotoxicity assay, MTT; type: cell-based; details: African green monkey, Vero cells, mean ± S.D., read-out: CC50 Toxicity (Vero Cell)
Protocol: (§4) MTT colorimetric technique was carried out for cytotoxicity evaluation according to the methods mentioned in our previously published article. An amount of 96 well plates with complete were used for the culture of the cells. FLUOstar OPTIMA spectrophotometer was applied for colorimetric analysis and in vitro evaluation.

L. major amastigotes = assay: Antileishmanial assay, amastigotes; type: cell-based, Leishmania major; details: mean ± S.D.; for IC50: Leishmania major, read-out: Amastigote IC50
Protocol: (§5) This assay was carried out according to the methods mentioned in our previously published article. L. major promastigotes were isolated locally from an indoor patient in 2016, liquid nitrogen was used for the preservation of the parasites, and BALB/c mice were used for the maintenance of the parasites and production of L. major amastigotes. Phenol red-free RPMI 1640 medium (Invitrogen, USA) with 10% FBS was used for the culture and in vitro evaluation, while amphotericin B (AmB) was used as reference drug.

L. major promastigotes = assay: Antileishmanial assay, promastigotes; type: cell-based, Leishmania major; details: mean ± S.D.; for IC50: Leishmania major
Protocol: as §5

[7] = test system: T. gondii tachyzoites RH strain; assay: Antitoxoplasmal assay; type: cell-based, Toxoplasma gondii; details: mean ± S.D.; for IC50: Toxoplasma gondii
Protocol: This assay was carried out according to the methods mentioned in our previously published article. Vero cells line (ATCC® CCL81™, USA) were used for the serial passage and cultivation of T. gondii tachyzoites RH strain, complete RPMI 1640 medium with heat-inactivated 10% FBS was used for the culture and in vitro evaluation, while atovaquone (ATO) was used as reference drug. The results were expressed in IC50 of three independent readings, followed by the selectivity index (SI) calculation by dividing CC50 over IC50 of the same compound [56].

TyrE = TyrE (Agaricus bisporus, UniProt C7FF04); type: biochemical
C. albicans [8] = assay: Agar well diffusion, inhibition zone; type: cell-based
Protocol: (§6) Microorganisms, media and growth conditions, agar well diffusion method for inhibition zone determination (IZ) and minimum inhibitory concentration (MIC) were performed according to the literature work.
(§7) The synthesized compounds were examined in vitro for their antimicrobial activity against Six standard microorganisms of ATCC, two Gram positive bacteria S. aureus and Listeria monocytogenes, three Gram negative bacteria Esherichia coli, Pseudomonas aeruginosa and Salmonella typhimurium and the fungus C. albicans. Bacteria were cultured in Luria-Bertani (LB) medium, while Sabouraud agar was used for culturing C. albicans and the assay conducted according to our previous techniques. The results were the average of 3 readings.

S. aureus [9] = assay: Agar well diffusion, inhibition zone; type: cell-based
Protocol: as §6, §7

L. monocytogenes [10] = assay: Agar well diffusion, inhibition zone; type: cell-based, Listeria monocytogenes
Protocol: as §6, §7

E. coli = assay: Agar well diffusion, inhibition zone; type: cell-based, Esherichia coli
Protocol: as §6, §7

P. aeruginosa = assay: Agar well diffusion, inhibition zone; type: cell-based, Pseudomonas aeruginosa
Protocol: as §6, §7

S. typhimurium [11] = assay: Agar well diffusion, inhibition zone; type: cell-based, Salmonella typhimurium
Protocol: as §6, §7

L. monocytogenes [12] = assay: Minimum inhibitory concentration (MIC); type: cell-based, Listeria monocytogenes
Protocol: as §6, §7

C. albicans [13] = assay: Minimum inhibitory concentration (MIC); type: cell-based
Protocol: as §6, §7

S. aureus [14] = assay: Minimum inhibitory concentration (MIC); type: cell-based
Protocol: as §6, §7

S. typhimurium [15] = assay: Minimum inhibitory concentration (MIC); type: cell-based, Salmonella typhimurium
Protocol: as §6, §7

Vero cell = assay: In vitro cytotoxicity assay, MTT; type: cell-based; details: mean ± S.D.
Protocol: as §4

[16] = test system: all examined microorganisms; assay: Antimicrobial activity, summary over all examined microorganisms; type: cell-based; details: for Inhibition of the examined indicator organisms: all of the examined indicator organisms
Protocol: as §6, §7

[17] = against all examined microorganisms

Sequence of TyrE (C7FF04 1-392): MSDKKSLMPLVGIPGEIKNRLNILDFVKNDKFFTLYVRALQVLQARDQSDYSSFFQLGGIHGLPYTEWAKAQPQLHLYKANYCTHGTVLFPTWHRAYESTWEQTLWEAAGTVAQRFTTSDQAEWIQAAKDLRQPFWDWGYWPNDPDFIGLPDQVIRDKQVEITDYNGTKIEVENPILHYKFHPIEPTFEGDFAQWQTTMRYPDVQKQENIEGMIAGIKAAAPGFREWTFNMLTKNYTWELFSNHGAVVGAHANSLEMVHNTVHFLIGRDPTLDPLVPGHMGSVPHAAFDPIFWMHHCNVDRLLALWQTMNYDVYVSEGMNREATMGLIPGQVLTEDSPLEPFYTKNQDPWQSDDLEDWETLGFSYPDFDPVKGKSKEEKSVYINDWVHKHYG
Sequence of electric eel AChE (O42275 24-633): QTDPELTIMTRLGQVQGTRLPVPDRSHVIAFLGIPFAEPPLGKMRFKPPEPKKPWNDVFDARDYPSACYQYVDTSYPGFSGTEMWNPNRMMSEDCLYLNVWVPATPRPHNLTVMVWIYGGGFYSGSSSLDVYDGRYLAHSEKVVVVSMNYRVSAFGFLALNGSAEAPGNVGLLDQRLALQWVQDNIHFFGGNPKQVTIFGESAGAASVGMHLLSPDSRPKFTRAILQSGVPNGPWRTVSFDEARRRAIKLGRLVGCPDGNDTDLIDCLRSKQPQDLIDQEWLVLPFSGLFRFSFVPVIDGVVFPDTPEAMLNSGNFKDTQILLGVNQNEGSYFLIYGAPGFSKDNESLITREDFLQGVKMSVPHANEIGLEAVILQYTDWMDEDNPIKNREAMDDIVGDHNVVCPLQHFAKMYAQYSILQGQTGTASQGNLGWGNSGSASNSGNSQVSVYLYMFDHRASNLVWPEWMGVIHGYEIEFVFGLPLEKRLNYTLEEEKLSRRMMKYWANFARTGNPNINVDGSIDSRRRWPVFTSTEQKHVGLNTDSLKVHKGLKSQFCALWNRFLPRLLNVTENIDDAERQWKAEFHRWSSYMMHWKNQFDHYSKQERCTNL

Compound | DPPH IC50 [1] [µM mL^−1] | ABTS IC50 [2] [µM mL^−1] | β-Carotene IC50 [3] [µM mL^−1] | IC50 [4] [µg/mL] | IC50 [5] [µg/mL] | TyrEI IC50 (TyrE) [µM mL^−1] | IC50 HCT-116 [4] [µM mL^−1] | IC50 HepG-2 [5] [µM mL^−1] | CC50 Toxicity (Vero Cell) (Vero cell) [µM mL^−1] | Amastigote IC50 (L. major amastigotes) [µM mL^−1] | Promastigotes IC50 (L. major promastigotes) [µM mL^−1] | Toxoplasma IC50 [7] [µM mL^−1] | also measured
Cc1cc(C)c(Cn2c[n+](Cc3c(C)cc(C)cc3C)c3cc(C)c(C)cc32)c(C)c1.[Br-] [Compound 2b, 5,6-dimethyl-1,3-bis(2,4,6-trimethylbenzyl)-1H-benzo[d]imidazol-3-ium bromide] | 63.45 ± 10.1 | 38.14 ± 4.9 | 325.55 ± 48.7 | 13.6 ± 2 | 17.4 ± 2.7 |  |  |  |  |  |  |  | IC50 (electric eel AChE): 27.3 µM; CC50 [6]: 1.1 ± 0.1 µg/mL; IC50 (L. major amastigotes): 0.3 ± 0.04 µg/mL; IC50 (L. major promastigotes): 2.2 ± 0.3 µg/mL; IC50 [7]: 3.7 ± 0.5 µg/mL
5,6-Dimethyl-[1,3-(3,5)dimethyl-4-methyl)-benzimidazol-2-ylidene](p-cymene) ruthenium(II) chloride [Compound 3d] | 32.18 ± 5.4 | 18.17 ± 3.0 | 92.25 ± 11.9 |  |  | 24.95 ± 3.7 | 8.45 ± 0.9 | 12.75 ± 1.7 | 1.8 ± 0.2 | 1.4 ± 0.3 | 0.32 ± 0.04 | 1.4 ± 0.1 | Inhibition zone (C. albicans [8]): 27 mm; Inhibition zone (S. aureus [9]): 26 mm; Inhibition zone (L. monocytogenes [10]): 28 mm; Inhibition zone (E. coli): 29 mm; Inhibition zone (P. aeruginosa): 27 mm; Inhibition zone (S. typhimurium [11]): 27 mm; MIC (L. monocytogenes [12]): 3.9 µM mL^−1; MIC (C. albicans [13]): 1.25 µM mL^−1; MIC (S. aureus [14]): 1.95 µM mL^−1; MIC (S. typhimurium [15]): 1.95 µM mL^−1; IZ (inhibition zone) [16, 17]: over 25 mm; MIC (minimum inhibitory concentration) [16, 17]: < 4 µM; Inhibition of the examined indicator organisms [16]: inhibited
5,6-Dimethyl-[1,3-(2,3,4,5,6-pentamethyl-2,4,6-trimethyl)-benzimidazol-2-ylidene](p-cymene) ruthenium(II) chloride [Compound 3a] | 61.25 ± 10.3 | 41.78 ± 7.3 | 401.12 ± 66.5 |  |  | 50.75 ± 8.3 | 4.12 ± 0.6 | 9.21 ± 1.3 | 1.2 ± 0.3 | 2.4 ± 0.4 | 0.45 ± 0.07 | 1.3 ± 0.2 | 
5,6-Dimethyl-[1,3-(2,3,4,5,6-pentamethyl-2,4,6-trimethyl)-benzimidazol-2-ylidene](p-cymene) ruthenium(II) chloride [Compound 3b] | 43.05 ± 5.7 | 32.05 ± 4.2 | 225.45 ± 31.5 |  |  | 19.88 ± 2.4 | 19.45 ± 3.2 | 31.40 ± 4.8 | 1.3 ± 0.3 | 1.1 ± 0.2 | 0.74 ± 0.08 | 1.4 ± 0.2 | MIC (L. monocytogenes [12]): 15.6 µM mL^−1; MIC (C. albicans [13]): 1.25 µM mL^−1; MIC (S. aureus [14]): 3.9 µM mL^−1; MIC (S. typhimurium [15]): 3.9 µM mL^−1; Inhibition of the examined indicator organisms [16]: inhibited
CC[C@]1(O)C[C@@H]2CN(CCc3c([nH]c4ccccc34)[C@@](C(=O)OC)(c3cc4c(cc3OC)N(C)[C@H]3[C@@](O)(C(=O)OC)[C@H](OC(C)=O)[C@]5(CC)C=CCN6CC[C@]43[C@@H]65)C2)C1 [vinblastine, reference compound] |  |  |  | 3.83 (≈ 4.72 µM) | 6.05 (≈ 7.46 µM) |  |  |  |  |  |  |  | 
Cc1cc(C(C)(C)C)c(O)c(C(C)(C)C)c1 [BHT, butylated hydroxytoluene, reference compound] | 31.55 ± 4.8 | 17.41 ± 2.9 | 89.55 ± 13.3 |  |  |  |  |  |  |  |  |  | 
5,6-dimethyl-1,3-(3,5)-dimethyl-4-methylbenzyl)-2,3-dihydro-1H-benzo[d]imidazolium bromide [Compound 2d] | 74.25 ± 11.6 | 55.21 ± 7.4 | 360.90 ± 40.8 |  |  | 43.25 ± 6.8 | 16.04 ± 2.9 | 26.82 ± 3.6 | 1.7 ± 0.3 | 1.4 ± 0.2 | 1.9 ± 0.3 | 3.8 ± 0.5 | AChEI IC50 (electric eel AChE): 22.27 ± 3.1 µM mL^−1
5,6-dimethyl-1,3-bis(2,3,4,5,6-pentamethylbenzyl)-1H-benzo[d]imidazol-3-ium bromide [Compound 2a] | 58.27 ± 7.4 | 39.12 ± 5.9 | 395.75 ± 51.6 |  |  | 45.05 ± 7.3 | 7.76 ± 1.1 | 11.75 ± 2.1 | 1.2 ± 0.2 | 1.1 ± 0.1 | 3.2 ± 0.5 | 8.4 ± 1.0 | AChEI IC50 (electric eel AChE): 18.38 ± 2.7 µM mL^−1
5,6-Dimethyl-[1,3-(4-(tert-butyl)-4-methyl)-benzimidazol-2-ylidene] (p-cymene) ruthenium (II) chloride [Compound 3c] | 65.49 ± 11.2 | 45.04 ± 6.6 | 374.87 ± 55.7 |  |  | 38.17 ± 5.5 | 8.45 ± 1.2 | 12.73 ± 1.8 | 1.9 ± 0.4 | 4.2 ± 0.8 | 0.37 ± 0.06 | 1.5 ± 0.3 | 
Cc1ccc(C[n+]2cn(Cc3ccc(C(C)(C)C)cc3)c3cc(C)c(C)cc32)cc1 [Compound 2c, 5,6-dimethyl-1,3-((4-(tert-butyl)-4-methyl-benzyl)-1H-benzo[d]imidazol-3-ium bromide] | 70.23 ± 12.0 | 51.27 ± 8.6 | 348.70 ± 52.1 | 15.4 ± 2.6 | 20.6 ± 3.3 |  |  |  |  |  |  |  | IC50 (electric eel AChE): 51.6 µM; CC50 [6]: 2.9 ± 0.4 µg/mL; IC50 (L. major amastigotes): 1.7 ± 0.2 µg/mL; IC50 (L. major promastigotes): 5.8 ± 0.9 µg/mL; IC50 [7]: 2.1 ± 0.3 µg/mL
